Patent US9192589B2, “Chalcones as enhancer of antimicrobial agents” (priority 2009, dated 2015)
Converted amounts (≈) assume the structure as drawn. Where two headings read alike, the source gives them in different places.

What was measured:
Streptococcus mutans = assay: MIC of antibacterial agents alone and in combination with CK-4; type: cell-based; details: S. mutans
From the text: (§1) The checkerboard method is the most frequently used method to access the antimicrobial combinations in vitro. The term “checkerboard” refers to the pattern (of tubes or microtiter plate wells) formed by multiple dilutions of two drugs being tested (Eliopoulos G M, Moellering R C. Antimicrobial Combinations, in: Antibiotics in Laboratory Medicine: USA: Williams & Wilkins). In the present study the checkerboard consisted of columns in which each tube (or well) contains the same amount of the standard drug (antibacterial/antifungal/anti-TB/antiviral) being diluted along the x-axis and rows in which each tube (or well) contains the same amount of the potentiator being diluted on the y-axis. As a result each square in the checkerboard (which represents one tube/well or plate) contained a unique combination of the standard drug and potentiator. The concentration range of standard drug in the present study was 64 μg/ml to 0.03 μg/ml, whereas the potentiator was tested in the range of 500 μg/ml to 0.2 μg/ml. This checkerboard technique can be performed with liquid or semisolid (agar) media.
(§2) In the agar method the agar (Mueller Hinton agar, Middlebrook 7H10 agar) was autoclaved and allowed to cool to 55° C. to 50° C. The combination of the standard drug and the potentiator was added to the agar. Serial two fold dilutions of each of standard drug and the potentiator were prepared in appropriate solvents. In order to maintain the desired concentrations of both agar and drugs, and to rule out the effect of solvent, the volume of solvent (containing standard drug or potentiator) added to agar was kept small (i.e. ≦5% of the total volume). After the agar plates have been poured and allowed to dry, the bacteria to be tested were applied to the surface of agar with a replicating device designed to deliver a standard inoculum (approx 10^4 cfu/spot). The plates were incubated at 37° C. for 24 hrs (3 weeks in case of Mycobacterium tuberculosis).
(§3) The above-mentioned checkerboard was also performed with liquid media in a microtiter plate format. This method was used to study the combination of antibacterial/antifungal/antiviral drugs with potentiator.
(§4) Minimum Inhibitory Concentration (MIC) of triclosan alone and in combination with the above mentioned chalcone compound was performed against Streptococcus mutans, Actinomyces viscosus and Fusobacterium nucleatum, using method described in the study design.
(§5) Minimum Inhibitory Concentration (MIC) of magnolol alone and in combination with the above mentioned chalcone compound was performed against Streptococcus mutans, Actinomyces viscosus and Fusobacterium nucleatum, using method described in the study design.
(§6) Minimum Inhibitory Concentration (MIC) of honokiol alone and in combination with the above mentioned chalcone compound was performed against Streptococcus mutans, Actinomyces viscosus and Fusobacterium nucleatum, using method described in the study design.

Fusobacterium nucleatum = assay: as above; type: cell-based; details: F. nucleatum
From the text: as §1, §2, §3, §4, §5, §6

Actinomyces viscosus = assay: as above; type: cell-based; details: A. viscosus
From the text: as §1, §2, §3, §4, §5, §6

[1] = tested on: Streptococcus mutans, Actinomyces viscosus and Fusobacterium nucleatum; assay: Fold reduction in MIC over the three oral bacteria; type: cell-based; details: in combination with CK-4; over S. mutans, A. viscosus and F. nucleatum
From the text: as §1, §2, §3, §4
Minimum Inhibitory Concentration (MIC) of magnolol alone and in combination with the above mentioned chalcone compound was performed against Streptococcus mutans, Actinomyces viscosus and Fusobacterium nucleatum, using method described in the study design. […]

A. Viscosus biofilm = assay: Inhibition of single species biofilm formation (BEC50, crystal violet); type: cell-based, Actinomyces viscosus; design: unit not given here; details: 24 hours; for BEC50 alone: agent alone
Method: (§7) Actinomyces viscosus (ATCC#43146) was grown in trypticase soy broth supplemented with 0.6% yeast extract (TSB-YE) at 37° C., static culture. For mixed species assays, the source of bacteria was a continuous culture chemostat inoculated with A. viscosus, Lactobacillus casei (ATCC #334), Streptococcus oxalis (ATCC #35037), Fusobacterium nucleatum (ATCC #10953), and Veilonella parvula (ATCC #17745). This mixed culture was maintained in a specialized complex medium in a continuous culture chemostat at 37° C.
To assess the bioenhancing ability of CK-4, inhibition of single species biofilm formation tests were conducted. Actives of interest were plated in the first column of a sterile 384-well culture plate and serial twofold dilutions were performed across the plate in 0.5× TSB. First generation cultures of A. Viscosus bacteria were grown overnight in TSB-YE. Cultures were diluted to an OD610˜0.2 in 0.5×TSB and plated in the wells containing serial dilutions of actives. Plates were incubated for 24 hours at 37° C. to allow growth and biofilm formation to occur.
Following incubation, supernatants were removed from the plate and remaining biofilms were stained with 0.03% Grain's crystal violet. Stained plates were read on a Perkin Elmer EnVision microplate reader for absorbance at 590 nm.

[2] = tested on: Staphylococcus aureus SA-K2192 (TetK overexpressing); assay: Checkerboard MIC of tetracycline alone and in combination with chalcone; type: cell-based
A. viscosus = assay: MIC assay using A. viscosus as reference organism (96-well, OD610); type: cell-based; details: Actinomyces viscosus, compound alone, 0.5x TSB, overnight 37° C.
Method: as §7

[3] = tested on: Staphylococcus aureus ATCC 29213; assay: Systemic infection model of mice, ED50 of ciprofloxacin; type: in vivo, Swiss albino mice; details: ATCC29213, iv, after seven days of observation
Method: Efficacy testing will be done using standard procedures. Primary efficacy evaluation may be done using the murine septicemia model (Yun et al. Journal of Antimicrob. Chemother., 2002, 46: 3071-3074). In this model a supra-lethal dose of bacteria is used to challenge the rodents. Treatment is initiated, varying either or both time(s) of treatment and dose of antibiotic. In these experiments both the antibiotic and the efflux pump inhibitor doses are varied.
The study was conducted to see the in vivo response of ciprofloxacin in combination with the above-mentioned efflux pump inhibitor. The Swiss albino mice were infected intravenously with Staphylococcus aureus ATCC 29213 (10^7 CFU/mouse). The infected mice were divided in groups and each group consisted of 6 mice. The treatment consisted of one dose immediately after the infection followed by the next dose after a gap of 6 hrs. The result was recorded as number of survivals each day.

[4] = tested on: Staphylococcus aureus 1199B (NorA overexpressing); assay: Checkerboard MIC of ciprofloxacin alone and in combination with chalcone; type: cell-based; details: for MIC: Staphylococcus aureus
[5] = tested on: Staphylococcus aureus SA-K2191 (MsrA overexpressing); assay: Checkerboard MIC of erythromycin alone and in combination with chalcone; type: cell-based; details: for MIC: Staphylococcus aureus
[6] = Streptococcus mutans, agent alone, read-out: MIC
[7] = Fusobacterium nucleatum, agent alone, read-out: MIC
[8] = Actinomyces viscosus, agent alone, read-out: MIC
[9] = in combination with CK-4 at 50 μg/ml
[10] = in combination with CK-14 at 50 μg/ml

Molecule	MIC (Streptococcus mutans; with CK-4 6.25 μg/ml) [µg/mL]	MIC (Streptococcus mutans; with CK-4 12.5 μg/ml) [µg/mL]	MIC (Streptococcus mutans; with CK-4 25 μg/ml) [µg/mL]	MIC (Streptococcus mutans; [6]) [µg/mL]	MIC (Fusobacterium nucleatum; with CK-4 6.25 μg/ml) [µg/mL]	MIC (Fusobacterium nucleatum; with CK-4 12.5 μg/ml) [µg/mL]	MIC (Fusobacterium nucleatum; with CK-4 25 μg/ml) [µg/mL]	MIC (Fusobacterium nucleatum; [7]) [µg/mL]	MIC (Actinomyces viscosus; with CK-4 6.25 μg/ml) [µg/mL]	MIC (Actinomyces viscosus; with CK-4 12.5 μg/ml) [µg/mL]	MIC (Actinomyces viscosus; with CK-4 25 μg/ml) [µg/mL]	MIC (Actinomyces viscosus; [8]) [µg/mL]	reduction in MIC in combination with chalcone compound [1]	BEC50 alone (A. Viscosus biofilm)	BEC50 with CK-4 (A. Viscosus biofilm)	also measured
CCCCc1ccc(O)c(-c2cc(CCCC)ccc2O)c1 [Butyl magnolol, 5,5′-dibutylbiphenyl-2,2′-diol]	4.0	2.0	1.0	4	2.0	2.0	1.0	2	4.0	2.0	1.0	4	Two to four-fold	0.65	0.24	
CN(C)[C@@H]1C(O)=C(C(N)=O)C(=O)[C@@]2(O)C(O)=C3C(=O)c4c(O)cccc4[C@@](C)(O)[C@H]3C[C@@H]12 [tetracycline]																MIC ([2]; read-out: MIC (μg/ml) of tetracycline for Staphylococcus aureus SA-K2192, in combination with CK-4 6.25 μg/ml): 32 µg/mL; MIC ([2]; read-out: MIC (μg/ml) of tetracycline for Staphylococcus aureus SA-K2192, in combination with CK-4 12.5 μg/ml): 16 µg/mL; MIC ([2]; read-out: MIC (μg/ml) of tetracycline for Staphylococcus aureus SA-K2192, in combination with CK-4 25.0 μg/ml): 8 µg/mL; MIC ([2]; read-out: MIC (μg/ml) of tetracycline for Staphylococcus aureus SA-K2192, in combination with CK-4 50.0 μg/ml): 4 µg/mL; MIC ([2]; read-out: MIC (μg/ml) of tetracycline for Staphylococcus aureus SA-K2192, tetracycline alone): 32 µg/mL
Catechin														26.04	26.04	
O=C([O-])CC(O)(CC(=O)[O-])C(=O)[O-].O=C([O-])CC(O)(CC(=O)[O-])C(=O)[O-].[Zn+2].[Zn+2].[Zn+2] [Zinc Citrate]														41.67	20.83	
COc1cc(/C=C/C(=O)c2ccccc2)ccc1O [CK-4, 3-(4′-Hydroxy-3′-methoxy-phenyl)-1-phenyl-prop-2-ene-1-one]																MIC (A. viscosus): > 100 µg/mL
CCCc1ccc(O)c(-c2ccc(O)c(CCC)c2)c1 [Propyl Honokiol, propyl honokiol]														0.49	0.65	
O=C(O)c1cn(C2CC2)c2cc(N3CCNCC3)c(F)cc2c1=O [ciprofloxacin]																ED50 ([3]; ciprofloxacin alone, mice infected i.v. with S. aureus ATCC 29213, two doses 6 hrs apart): 9.2 mg/kg; ED50 ([3]; in combination with the CK-4, mice infected i.v. with S. aureus ATCC 29213, two doses 6 hrs apart): 5.86 mg/kg; MIC ([4]; read-out: MIC (μg/ml) of ciprofloxacin for Staphylococcus aureus 1199B, ciprofloxacin alone): 8 µg/mL; MIC ([4]; read-out: MIC (μg/ml) of ciprofloxacin for Staphylococcus aureus 1199B, in combination with CK-4 6.25 μg/ml): 4 µg/mL; MIC ([4]; read-out: MIC (μg/ml) of ciprofloxacin for Staphylococcus aureus 1199B, in combination with CK-4 12.5 μg/ml): 2 µg/mL; MIC ([4]; read-out: MIC (μg/ml) of ciprofloxacin for Staphylococcus aureus 1199B, in combination with CK-4 25.0 μg/ml): 1 µg/mL; MIC ([4]; read-out: MIC (μg/ml) of ciprofloxacin for Staphylococcus aureus 1199B, in combination with CK-4 50.0 μg/ml): 0.5 µg/mL; reduction in MIC of ciprofloxacin [4, 9]: Up to sixteen-fold; reduction in MIC of ciprofloxacin [4, 10]: Up to eight-fold
C=CCc1ccc(O)c(-c2ccc(O)c(CC=C)c2)c1 [Honokiol, honokiol]	2.0	1.0	0.5	4	1.0	1.0	0.5	2	2.0	1.0	0.5	4	Four to eight-fold	5.21	2.60	
CC[C@H]1OC(=O)[C@H](C)[C@@H](O[C@H]2C[C@@](C)(OC)[C@@H](O)[C@H](C)O2)[C@H](C)[C@@H](O[C@@H]2O[C@H](C)C[C@H](N(C)C)[C@H]2O)[C@](C)(O)C[C@@H](C)C(=O)[C@H](C)[C@@H](O)[C@]1(C)O [erythromycin]																MIC ([5]; read-out: MIC (μg/ml) of erythromycin for Staphylococcus aureus SA-K2191, erythromycin alone): 64 µg/mL; MIC ([5]; read-out: MIC (μg/ml) of erythromycin for Staphylococcus aureus SA-K2191, in combination with CK-4 6.25 μg/ml): 64 µg/mL; MIC ([5]; read-out: MIC (μg/ml) of erythromycin for Staphylococcus aureus SA-K2191, in combination with CK-4 12.5 μg/ml): 32 µg/mL; MIC ([5]; read-out: MIC (μg/ml) of erythromycin for Staphylococcus aureus SA-K2191, in combination with CK-4 25.0 μg/ml): 16 µg/mL; MIC ([5]; read-out: MIC (μg/ml) of erythromycin for Staphylococcus aureus SA-K2191, in combination with CK-4 50.0 μg/ml): 8 µg/mL; reduction in MIC of erythromycin [5, 9]: Up to eight-fold; reduction in MIC of erythromycin [5, 10]: Up to four-fold
C=CCc1ccc(O)c(-c2cc(CC=C)ccc2O)c1 [Magnolol, magnolol]	2.0	1.0	0.5	4	1.0	1.0	0.5	2	1.0	0.5	0.25	4	Up to sixteen-fold	3.91	1.95	
Oc1cc(Cl)ccc1Oc1ccc(Cl)cc1Cl [Triclosan, triclosan]	2.0	1.0	0.5	4	1.0	1.0	0.5	2	2.0	1.0	0.5	4	Four to eight-fold	1.95	0.98	MIC (A. viscosus): 3.5 µg/mL (≈ 12.1 µM)
